Non-standard residues stand in square brackets, D forms with d. Residues, ends and D or L forms follow the SMILES beside them. Dmt = Cc1cc(O)cc(C)c1C[C@H](N)C(=O)O
What was measured:
[1] = test system: several mammalian cell types; conditions: energy-independent manner; cited from earlier work
[2] = test system: rats with permanent coronary artery occlusion; experiment: Deaths during 6 weeks treatment; type: in vivo, rat; conditions: 74 rats randomized to peptide or water
Method: Rats were anesthetized, ventilated, and a thoracotomy performed in the left 4th intercostal space. Temperature was maintained at 36° C. by placing the rats on a heating pad during the procedure. The pericardium was excised and the proximal left coronary artery isolated and permanently occluded with a suture. Coronary artery occlusion was confirmed by cyanosis and akinesis of the anterior wall of the ventricle. The chest was closed, air evacuated, and the rats allowed to recover. Analgesia was administered per the veterinarian. An echocardiogram was obtained at approximately 15 minutes post coronary artery occlusion. At 2 hours rats were randomized to receive chronic daily D-Arg-2′,6′-Dmt-Lys-Phe-NH2 (delivered subcutaneously by an Alzet Osmotic Pump—3 mg/kg/day) or water. […] Heart rate and blood pressure were measured. A Millar catheter was inserted into the left ventricle and LV systolic pressure, LV end diastolic pressure, +dP/dt, and −dP/dt were measured. […] Postmortem left ventricle volume was measured by filling the LV cavity with fluid and measuring the total fluid. […] Quantitative histologic analysis included: total circumference, scar circumference, non-infarcted wall circumference, total LV area, total LV cavity area, LV wall thickness (at several points), non-infarcted wall thickness; myocardial infarct expansion index. […]

Molecule	penetration of the plasma membrane [1]	deaths during the 6 weeks treatment [2]
2′,6′-Dmt-D-Arg-Phe-Lys-NH2	readily penetrates	
Cc1cc(O)cc(C)c1C[C@H](NC(=O)[C@H](N)CCCNC(=N)N)C(=O)N[C@@H](CCCCN)C(=O)N[C@@H](Cc1ccccc1)C(N)=O [D-Arg-2′,6′-Dmt-Lys-Phe-NH2] (H-[dR][Dmt]KF-NH2)		no rats died

From patent US20190358286A1, “METHODS FOR THE PREVENTION OR TREATMENT OF LEFT VENTRICLE REMODELING” (Stealth BioTherapeutics Corp., priority 2013, published 2019)
